Assay results as given in ChEMBL document CHEMBL5325419, “Design, synthesis and biological evaluation of novel thiosemicarbazones as cruzipain inhibitors” (Eur J Med Chem, 2023).
Where “and” joins values, the source holds several entries; their conditions need not be identical. Equal values may be shown once. Calls of active or inactive are those of the source. The rule behind the calls is not given here.

Tests used:
Cruzipain [1] = molecular target: T1, Cruzipain (Trypanosoma cruzi, UniProt P25779); experiment: Inhibition of recombinant Trypanosoma cruzi Cruzipain using Z-Phe-Arg-AMC as substrate preincubated for 5 mins followed by substrate addition by spectrofluorometry analysis
T1 sequence (P25779 whole entry): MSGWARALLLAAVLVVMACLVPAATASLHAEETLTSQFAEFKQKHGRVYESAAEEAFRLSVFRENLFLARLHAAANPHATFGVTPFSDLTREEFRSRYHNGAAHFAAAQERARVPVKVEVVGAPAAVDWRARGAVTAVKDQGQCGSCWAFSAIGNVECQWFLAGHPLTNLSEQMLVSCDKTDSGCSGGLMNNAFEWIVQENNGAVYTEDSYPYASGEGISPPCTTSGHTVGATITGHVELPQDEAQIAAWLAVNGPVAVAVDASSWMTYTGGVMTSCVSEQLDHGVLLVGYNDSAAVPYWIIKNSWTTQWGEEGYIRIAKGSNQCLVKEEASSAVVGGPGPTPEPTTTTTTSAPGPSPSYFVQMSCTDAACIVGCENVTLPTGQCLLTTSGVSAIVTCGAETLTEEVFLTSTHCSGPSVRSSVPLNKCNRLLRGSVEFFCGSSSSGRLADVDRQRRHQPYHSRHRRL

[2] = molecular target: Cruzipain (Trypanosoma cruzi) (UniProt P25779); experiment: Time dependent inhibition of recombinant Trypanosoma cruzi Cruzipain using Z-FR-AMC as substrate at 1000 nM preincubated for 60 mins followed by substrate addition and measured for 45 to 60 mins by fluorescence analysis; settings: time 105-120 min, TDE = time-dependent effect
Cruzipain (Trypanosoma cruzi), sequence (P25779 123-467 limits assumed): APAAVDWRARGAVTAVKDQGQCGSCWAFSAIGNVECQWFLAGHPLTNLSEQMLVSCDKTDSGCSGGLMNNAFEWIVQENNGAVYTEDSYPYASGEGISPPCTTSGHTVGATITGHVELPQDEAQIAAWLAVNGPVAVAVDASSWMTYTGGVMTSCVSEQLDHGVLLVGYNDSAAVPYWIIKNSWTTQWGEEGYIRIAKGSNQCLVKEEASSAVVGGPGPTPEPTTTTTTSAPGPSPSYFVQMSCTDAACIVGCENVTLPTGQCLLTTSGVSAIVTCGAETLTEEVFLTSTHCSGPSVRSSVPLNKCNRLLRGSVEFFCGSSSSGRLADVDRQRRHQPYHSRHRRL

[3] = molecular target: Cruzipain (Trypanosoma cruzi) (UniProt P25779); experiment: Reversible inhibition of recombinant Trypanosoma cruzi Cruzipain using Z-LR-AMC as substrate at 10 uM preincubated for 60 mins followed by substrate addition and measured for 45 to 60 mins by fluorescence analysis; settings: time 105-120 min
Cruzipain [4] = molecular target: T1, Cruzipain; experiment: Inhibition of recombinant Trypanosoma cruzi Cruzipain using Z-FR-AMC as substrate preincubated for 20 mins followed by substrate addition and measured for 45 mins by fluorescence analysis
[5] = molecular target: Cruzipain (Trypanosoma cruzi) (UniProt P25779); experiment: Time dependent inhibition of recombinant Trypanosoma cruzi Cruzipain using Z-FR-AMC as substrate at 125 nM preincubated for 60 mins followed by substrate addition and measured for 45 to 60 mins by fluorescence analysis; settings: time 105-120 min, TDE = time-dependent effect
[6] = molecular target: Cruzipain (Trypanosoma cruzi) (UniProt P25779); experiment: Inhibition of recombinant Trypanosoma cruzi Cruzipain using Z-FR-AMC as substrate at 125 to 1000 nM by fluorescence analysis; settings: dose 125-1000 nM
[7] = molecular target: Cruzipain (Trypanosoma cruzi) (UniProt P25779); experiment: Reversible inhibition of recombinant Trypanosoma cruzi Cruzipain using Z-LR-AMC as substrate at 1 uM preincubated for 60 mins followed by substrate addition and measured for 45 to 60 mins by fluorescence analysis; settings: time 105-120 min
[8] = molecular target: Cruzipain (Trypanosoma cruzi) (UniProt P25779); experiment: Reversible inhibition of recombinant Trypanosoma cruzi Cruzipain using Z-LR-AMC as substrate at 25 uM preincubated for 60 mins followed by substrate addition and measured for 45 to 60 mins by fluorescence analysis; settings: time 105-120 min

Row | IC50 (Cruzipain [1]) [nM] | inhibition [2] | IC50 (Cruzipain [4]; read-out: IC50) | inhibition [5] | inhibition [6] | Structure (SMILES) | other results
1 | 24.5 | – | – | – | – | CC/C(=N\N=C(\N)S)c1ccc(Cl)c(Cl)c1 | –
2 | – | Tde | 2.86 nM and 8.54 nM | Tde | Dose-Dependent Effect | NC(=S)N/N=C(\CCN1CCCCC1)c1ccc(Cl)c(Cl)c1 | inhibition [3]: Active
3 | 110 | – | – | – | – | C/C(=N\N=C(\N)S)c1cccc(Br)c1 | –
4 | – | Tde | 3.34 nM and 8.48 nM | Tde | Dose-Dependent Effect | NC(=S)N/N=C(\CCN1CCOCC1)c1ccc(Cl)c(Cl)c1 | inhibition [7]: Active
5 | – | – | – | – | – | N/C(S)=N/N=C/c1cccc(Br)c1 | IC50 (Cruzipain [4]; read-out: pIC50 (converted)): 1360 nM
6 | – | Tde | – | Tde | Dose-Dependent Effect | NC(=S)N/N=C(\CCn1ccnc1)c1ccc(Cl)c(Cl)c1 | inhibition [8]: Active
